Read-outs that look alike come from different tables or passages of the source.

The format of data set [1] is physicochemical. Conditions: for purity of the samples, 24 h: after 24 hours at 70° C. in an oven; for purity of the samples, 24 h / purity of the samples, 48 h / purity of the samples, 72 h / purity of the samples, 0 h: HPLC at 285 nm; for purity of the samples, 48 h: after 48 hours at 70° C. in an oven; for purity of the samples, 72 h: after 72 hours at 70° C. in an oven; for purity of the samples, 0 h: time 0, before heating at 70° C. The protocol: The samples of crystalline anhydrous dexlansoprazole prepared according to the method of the present invention (new method) and those made according to the method of U.S. Pat. No. 8,314,241 (present Example 4) are heated in an oven at 70° C.
After 24, 48 and 72 hours, samples are taken and analyzed by HPLC at a wavelength of 285 nm.

A short description of data set [2]: Thermal stability of dexlansoprazole in solution (dispersion), HPLC. The class given is physicochemical. Conditions: dispersion 14 hours at 45° C., distillation at 50° C. at reduced pressure, further 14 hours at 45° C.; not present at time 0. The protocol:
In order to establish the thermal stability of dexlansoprazole the dispersion of dexlansoprazole was heated for 14 hours at 45° C., then a distillation at 50° C. at reduced pressure was performed and finally the dispersion was kept for further 14 hours at 45° C.
The color of the resulting dispersion turned into a slight yellow.

[3] abbreviates: listed as crystalline anhydrous dexlansoprazole prepared with the procedure of the present.

Regarding `Cc1c(OCC(F)(F)F)ccnc1C[S@@+]([O-])c1nc2ccccc2[nH]1` [Method of the present invention], in data set [1] (70° C. for 72 hours, Area % HPLC at 285 nm), the “decrease of the concentration of crystalline anhydrous dexlansoprazole” value was “less than 0.1%”. For the same molecule, in data set [1], the “purity of the samples, 24 h” value worked out at 99.95%; the “purity of the samples, 48 h” value is 99.93%; the “purity of the samples, 72 h” value worked out at 99.93%; the “purity of the samples, 0 h” value was 99.96%. In addition, in data set [1] (setting [3]), the “purity of the samples, 72 h” value was determined as 99.93% and the “purity of the samples, 0 h” value was found to be 99.96%.

`Cc1c(OCC(F)(F)F)ccnc1C[S@@+]([O-])c1nc2ccccc2[nH]1` [dexlansoprazole]: the “content of impurity of formula (I) formed” value in data set [2] was 0.03%.

Take `Cc1c(OCC(F)(F)F)ccnc1C[S@@+]([O-])c1nc2ccccc2[nH]1` [U.S. Pat. No. 8,314,241]: the “increase of the contents of all the impurities” value in data set [1] (after 24 hours at 70° C.) was “more than 0.2%”. For the same molecule, in data set [1], the “purity of the samples, 24 h” value is recorded as 99.28%; the “purity of the samples, 48 h” value is given as 99.09%; the “purity of the samples, 72 h” value stood at 98.91%; the “purity of the samples, 0 h” value was 99.51%. Also, in data set [1] (after 72 hours at 70° C.), the “increase of the contents of all the impurities” value is on record as 0.60%.

Values taken from US10370359B2, “Process for the preparation of crystalline dexlansoprazole” (DIPHARMA FRANCIS S.r.l., priority 2017, dated 2019).
